The values that follow come from ChEMBL document CHEMBL4334498, “Structures, NMR Spectroscopic Features, and Cytotoxic Properties of Oligomeric Hellinoyl (m-GO-m-GOG)-Type Ellagitannins from the Galls of Tamarix aphylla” (J Nat Prod, 2019).

Series [1] is described as follows: Cytotoxicity against human HPLF cells assessed as reduction in cell viability incubated for 48 hrs by MTT assay. In kind it is cell-based. (Formazan colour is commonly taken as a measure of viable cells.)
The test system of series [2] is HSC-4. In words: Cytotoxicity against human HSC4 cells assessed as reduction in cell viability incubated for 48 hrs by MTT assay. In kind it is functional. The conditions noted are these: HSC-4, 48 h.
Series [3] concerns HSC-2. In words: Cytotoxicity against human HSC2 cells assessed as reduction in cell viability incubated for 48 hrs by MTT assay. In kind it is functional. Conditions: HSC-2, 48 h.
The nature of series [4]: Cytotoxicity against human Pulp Cell cells assessed as reduction in cell viability incubated for 48 hrs by MTT assay. In kind it is cell-based.
Series [5] is described as follows: Cytotoxicity against human HGF cells assessed as reduction in cell viability incubated for 48 hrs by MTT assay. In kind it is cell-based.
Series [6] deals with Ca9-22. Put plainly: Cytotoxicity against human Ca9-22 cells assessed as reduction in cell viability incubated for 48 hrs by MTT assay. In kind it is functional. Conditions: Ca9-22, 48 h.

Where only a bound is given, the exact number is not on record here.

Broadly, the CC50 is the concentration at which the toxic effect on the cells reaches its halfway point.

For `O=C(O)c1cc(O)c(O)c(Oc2c(C(=O)O)cc(Oc3c(C(=O)O)cc(O)c(O)c3O)c(O)c2O)c1`, the half-maximal cytotoxic concentration (CC50) at 48 h in series [1], in series [4] and in series [5] was greater than 395 µM each time. The CC50 in series [2] worked out at 153 µM; in series [3], 246 µM; in series [6], 345 µM.

Regarding `O=C(O[C@@H]1O[C@@H]2COC(=O)c3cc(O)c(O)c(O)c3-c3c(cc(O)c(O)c3O)C(=O)O[C@H]2[C@H](OC(=O)c2cc(O)c(O)c(O)c2)[C@H]1OC(=O)c1cc(O)c(O)c(O)c1Oc1cc(C(=O)O[C@@H]2O[C@@H]3COC(=O)c4cc(O)c(O)c(O)c4-c4c(cc(O)c(O)c4O)C(=O)O[C@H]3[C@H](OC(=O)c3cc(O)c(O)c(O)c3)[C@H]2OC(=O)c2cc(O)c(O)c(O)c2Oc2cc3c(c(O)c2O)Oc2cc(cc(O)c2O)C(=O)O[C@@H]2O[C@@H]4COC(=O)c5cc(O)c(O)c(O)c5-c5c(cc(O)c(O)c5O)C(=O)O[C@H]4[C@H](OC(=O)c4cc(O)c(O)c(O)c4)[C@H]2OC3=O)cc(O)c1O)c1cc(O)c(O)c(Oc2c(C(=O)O[C@H]3C(O)O[C@@H]4COC(=O)c5cc(O)c(O)c(O)c5-c5c(cc(O)c(O)c5O)C(=O)O[C@H]4[C@@H]3OC(=O)c3cc(O)c(O)c(O)c3)cc(O)c(O)c2O)c1` (stereo not given in full), the CC50 at 48 h in series [1], in series [4] and in series [5] was greater than 56 µM in each case. Further, the CC50 in series [2] amounted to 24 µM; in series [3], 25 µM; in series [6], 35 µM.

Take `O=C(O[C@@H]1O[C@@H]2COC(=O)c3cc(O)c(O)c(O)c3-c3c(cc(O)c(O)c3O)C(=O)O[C@H]2[C@H](OC(=O)c2cc(O)c(O)c(O)c2)[C@H]1OC(=O)c1cc(O)c(O)c(O)c1Oc1cc2c(c(O)c1O)Oc1cc(cc(O)c1O)C(=O)O[C@@H]1O[C@@H]3COC(=O)c4cc(O)c(O)c(O)c4-c4c(cc(O)c(O)c4O)C(=O)O[C@H]3[C@H](OC(=O)c3cc(O)c(O)c(O)c3)[C@H]1OC2=O)c1cc(O)c(O)c(Oc2c(C(=O)O[C@H]3C(O)O[C@@H]4COC(=O)c5cc(O)c(O)c(O)c5-c5c(cc(O)c(O)c5O)C(=O)O[C@H]4[C@@H]3OC(=O)c3cc(O)c(O)c(O)c3)cc(O)c(O)c2O)c1` (stereo not given in full): the CC50 at 48 h in series [1], in series [4] and in series [5] was greater than 75 µM each time. The CC50 in series [2] was found to be 26 µM; in series [3], 23 µM; in series [6], 27 µM.

`O=C(OC[C@H]1O[C@H]2OC(=O)c3cc(O)c(O)c(c3)Oc3c(cc(Oc4c(C(=O)O[C@H]5[C@H](OC(=O)c6cc(O)c(O)c(O)c6)O[C@@H]6COC(=O)c7cc(O)c(O)c(O)c7-c7c(cc(O)c(O)c7O)C(=O)O[C@H]6[C@@H]5OC(=O)c5cc(O)c(O)c(O)c5)cc(O)c(O)c4O)c(O)c3O)C(=O)O[C@@H]2[C@@H](OC(=O)c2cc(O)c(O)c(O)c2)[C@@H]1O)c1cc(O)c(O)c(O)c1`: the CC50 at 48 h in series [1], in series [4] and in series [5] was greater than 116 µM throughout. Besides, the CC50 in series [2] came to 21 µM; in series [3], 21 µM; in series [6] it was 25 µM.

As for `COc1cccc2c1C(=O)c1c(O)c3c(c(O)c1C2=O)C[C@@](O)(C(=O)CO)C[C@@H]3O[C@H]1C[C@H](N)[C@H](O)[C@H](C)O1` [DOXORUBICIN], the CC50 at 48 h in series [1], in series [4] and in series [5] was greater than 10 µM in each case. Further, the CC50 in series [2] was 0.1 µM; in series [6], 0.7 µM.

Turning to `O=c1[nH]cc(F)c(=O)[nH]1` [FLUOROURACIL], the CC50 at 48 h in series [1], in series [4] and in series [5] was greater than 1000 µM throughout. Moreover, the CC50 in series [2] came out at 25 µM; in series [3], 47 µM; in series [6], 262 µM.
